Measurements: patent publication US10670605B2, “Cysteine reactive probes and uses thereof” (The Scripps Research Institute, priority 2015, dated 2020)
Blank lines part the entries; values can stand above or below the compound they belong to.

Key:
Test in all cases: Competitive isoTOP-ABPP in situ (fragment-treated cells)
Type in all cases: cell-based
[1] = biological target: T1, cysteines in MDA-MB-231 and Ramos cells (Homo sapiens, UniProt Q6ICB0)
T1 sequence (Q6ICB0 1-168): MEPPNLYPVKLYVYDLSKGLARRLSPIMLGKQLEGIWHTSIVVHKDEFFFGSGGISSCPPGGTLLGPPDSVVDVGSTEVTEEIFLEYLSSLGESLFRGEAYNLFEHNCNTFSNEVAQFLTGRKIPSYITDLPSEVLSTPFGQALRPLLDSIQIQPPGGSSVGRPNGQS

[2] = biological target: cysteines in MDA-MB-231 and Ramos cells (Homo sapiens, UniProt Q96FX7)
[3] = biological target: T2, cysteines in MDA-MB-231 and Ramos cells (Homo sapiens, UniProt Q9NTX5)
T2 sequence (Q9NTX5 1-307): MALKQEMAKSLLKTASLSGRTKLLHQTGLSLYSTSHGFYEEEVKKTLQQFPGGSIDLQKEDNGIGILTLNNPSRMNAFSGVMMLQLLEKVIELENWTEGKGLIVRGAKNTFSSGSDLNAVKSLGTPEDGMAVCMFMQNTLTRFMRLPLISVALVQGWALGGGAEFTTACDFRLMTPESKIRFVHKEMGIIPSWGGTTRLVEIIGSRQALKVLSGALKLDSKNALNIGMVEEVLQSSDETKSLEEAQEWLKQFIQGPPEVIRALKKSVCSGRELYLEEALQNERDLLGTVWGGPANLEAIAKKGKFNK

[4] = biological target: T3, cysteines in MDA-MB-231 and Ramos cells (Homo sapiens, UniProt Q96RS6)
T3 sequence (Q96RS6 1-583): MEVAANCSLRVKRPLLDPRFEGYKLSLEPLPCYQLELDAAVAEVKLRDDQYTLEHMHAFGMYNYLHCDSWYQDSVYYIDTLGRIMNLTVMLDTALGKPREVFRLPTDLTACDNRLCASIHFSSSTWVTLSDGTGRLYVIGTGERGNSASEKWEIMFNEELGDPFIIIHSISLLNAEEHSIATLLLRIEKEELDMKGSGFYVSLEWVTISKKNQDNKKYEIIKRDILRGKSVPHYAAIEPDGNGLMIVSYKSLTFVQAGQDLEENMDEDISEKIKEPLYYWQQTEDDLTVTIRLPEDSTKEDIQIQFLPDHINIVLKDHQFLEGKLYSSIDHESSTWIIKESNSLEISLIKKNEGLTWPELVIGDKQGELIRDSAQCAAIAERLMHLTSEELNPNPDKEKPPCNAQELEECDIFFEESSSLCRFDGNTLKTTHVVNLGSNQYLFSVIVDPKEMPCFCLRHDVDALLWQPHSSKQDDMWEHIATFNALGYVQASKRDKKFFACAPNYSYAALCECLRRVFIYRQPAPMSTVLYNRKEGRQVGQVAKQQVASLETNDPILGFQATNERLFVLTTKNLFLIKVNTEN

[5] = biological target: T4, cysteines in MDA-MB-231 and Ramos cells (Homo sapiens, UniProt Q96RU2)
T4 sequence (Q96RU2 1-1077): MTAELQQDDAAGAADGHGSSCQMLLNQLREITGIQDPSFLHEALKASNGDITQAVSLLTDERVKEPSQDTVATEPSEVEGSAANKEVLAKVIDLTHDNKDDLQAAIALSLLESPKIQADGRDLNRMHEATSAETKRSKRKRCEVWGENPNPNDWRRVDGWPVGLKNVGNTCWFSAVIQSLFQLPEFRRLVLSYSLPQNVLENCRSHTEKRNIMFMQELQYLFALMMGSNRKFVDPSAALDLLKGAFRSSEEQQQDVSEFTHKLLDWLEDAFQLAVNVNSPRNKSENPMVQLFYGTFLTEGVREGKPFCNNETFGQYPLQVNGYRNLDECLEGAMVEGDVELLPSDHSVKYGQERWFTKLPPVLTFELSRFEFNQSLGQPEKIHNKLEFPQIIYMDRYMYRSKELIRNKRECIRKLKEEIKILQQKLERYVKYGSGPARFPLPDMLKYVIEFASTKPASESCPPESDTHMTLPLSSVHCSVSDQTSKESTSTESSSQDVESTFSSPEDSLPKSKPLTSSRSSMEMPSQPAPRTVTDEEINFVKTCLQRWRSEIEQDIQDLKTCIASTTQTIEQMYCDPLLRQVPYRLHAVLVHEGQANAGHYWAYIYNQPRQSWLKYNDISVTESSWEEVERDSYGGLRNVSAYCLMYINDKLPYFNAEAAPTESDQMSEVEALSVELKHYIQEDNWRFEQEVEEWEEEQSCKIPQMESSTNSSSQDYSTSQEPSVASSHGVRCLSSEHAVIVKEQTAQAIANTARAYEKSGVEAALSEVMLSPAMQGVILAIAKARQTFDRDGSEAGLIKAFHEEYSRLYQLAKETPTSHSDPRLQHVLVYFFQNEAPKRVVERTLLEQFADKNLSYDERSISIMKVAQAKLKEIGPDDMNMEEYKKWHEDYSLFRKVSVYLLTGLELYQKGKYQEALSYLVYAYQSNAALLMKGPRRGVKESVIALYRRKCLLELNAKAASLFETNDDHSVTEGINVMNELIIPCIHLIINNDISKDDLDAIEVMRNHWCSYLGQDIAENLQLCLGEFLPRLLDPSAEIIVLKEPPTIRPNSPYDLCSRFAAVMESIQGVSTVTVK

[6] = biological target: cysteines in MDA-MB-231 and Ramos cells (Homo sapiens, UniProt Q9Y3D2)
[7] = biological target: T5, cysteines in MDA-MB-231 and Ramos cells (Homo sapiens, UniProt O14733); details: 200 μM, insitu
T5 sequence (O14733 1-419): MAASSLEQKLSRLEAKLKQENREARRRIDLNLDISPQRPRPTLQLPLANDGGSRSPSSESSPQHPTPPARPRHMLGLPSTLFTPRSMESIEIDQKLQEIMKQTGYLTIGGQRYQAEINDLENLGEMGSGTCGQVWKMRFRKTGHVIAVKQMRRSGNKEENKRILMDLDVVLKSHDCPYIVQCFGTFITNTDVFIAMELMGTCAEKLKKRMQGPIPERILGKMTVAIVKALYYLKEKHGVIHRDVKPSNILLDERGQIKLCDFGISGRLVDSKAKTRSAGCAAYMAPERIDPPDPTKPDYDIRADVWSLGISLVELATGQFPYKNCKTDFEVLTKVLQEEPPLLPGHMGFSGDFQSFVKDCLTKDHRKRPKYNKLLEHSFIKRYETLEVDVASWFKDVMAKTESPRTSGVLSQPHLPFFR

Sequence of cysteines in MDA-MB-231 and Ramos cells (Homo sapiens, UniProt Q9Y3D2) (Q9Y3D2 21-182): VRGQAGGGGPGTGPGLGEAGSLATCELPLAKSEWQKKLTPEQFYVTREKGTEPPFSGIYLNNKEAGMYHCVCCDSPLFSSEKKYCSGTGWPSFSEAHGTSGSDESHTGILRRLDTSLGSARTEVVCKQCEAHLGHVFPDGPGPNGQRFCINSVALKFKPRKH
Sequence of cysteines in MDA-MB-231 and Ramos cells (Homo sapiens, UniProt Q96FX7) (Q96FX7 whole entry): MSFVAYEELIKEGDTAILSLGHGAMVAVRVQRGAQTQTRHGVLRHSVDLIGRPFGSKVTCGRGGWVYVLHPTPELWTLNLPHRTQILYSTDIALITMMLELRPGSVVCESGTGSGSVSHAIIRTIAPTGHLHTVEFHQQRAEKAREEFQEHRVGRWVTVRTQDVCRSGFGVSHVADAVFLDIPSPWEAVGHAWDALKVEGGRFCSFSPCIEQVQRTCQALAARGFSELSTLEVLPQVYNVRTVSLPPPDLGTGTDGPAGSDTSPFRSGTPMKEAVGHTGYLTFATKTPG

SMILES: O=C(CCl)NC(=O)NC12CC3CC(CC(C3)C1)C2 [compound 12]
isoTOP-ABPP ratio, cysteine O14733_C131 [7]; 231: 1.7
isoTOP-ABPP ratio, cysteine Q96FX7_C209 ([2]; 200 μM, insitu, 231): 20.0
isoTOP-ABPP ratio Q96RS6_C376 ([4]; 200 μM, insitu, 231): 1.1
isoTOP-ABPP ratio, cysteine Q96RU2_C171 ([5]; 200 μM, insitu, 231): 20.0
isoTOP-ABPP ratio Q9NTX5_C133 ([3]; 200 μM, insitu, 231): 1.2
isoTOP-ABPP ratio, cysteine Q9Y3D2_C105 ([6]; 200 μM, insitu, 231): 20.0

SMILES: O=C(CCl)NCCc1c[nH]c2ccccc12 [compound 13]
isoTOP-ABPP ratio, cysteine O14733_C131 ([7]; ramos): 1.6
isoTOP-ABPP ratio Q6ICB0_C108 ([1]; 200 μM, insitu, ramos): 4.0
isoTOP-ABPP ratio, cysteine Q96FX7_C209 ([2]; 200 μM, insitu, 231): 2.1
isoTOP-ABPP ratio, cysteine Q96FX7_C209 ([2]; 200 μM, insitu, ramos): 6.8
isoTOP-ABPP ratio Q96RS6_C376 ([4]; 200 μM, insitu, 231): 0.7
isoTOP-ABPP ratio Q96RS6_C376 ([4]; 200 μM, insitu, ramos): 1.2
isoTOP-ABPP ratio Q9NTX5_C133 ([3]; 200 μM, insitu, 231): 1.1

SMILES: O=C(CCl)NC12CC3CC(CC(C3)C1)C2 [compound 21]
isoTOP-ABPP ratio, cysteine O14733_C131 [7]; 231: 0.7
isoTOP-ABPP ratio Q6ICB0_C108 ([1]; 200 μM, insitu, 231): 0.6
isoTOP-ABPP ratio, cysteine Q96FX7_C209 ([2]; 200 μM, insitu, 231): 2.0
isoTOP-ABPP ratio Q96RS6_C376 ([4]; 200 μM, insitu, 231): 1.4
isoTOP-ABPP ratio Q9NTX5_C133 ([3]; 200 μM, insitu, 231): 1.1

SMILES: CC(C)CCOCCNC(=O)CCl [compound 27]
isoTOP-ABPP ratio Q6ICB0_C108 ([1]; 200 μM, insitu, 231): 1.9
isoTOP-ABPP ratio, Q96RU2_C171 ([5]; 200 μM, insitu, 231): 1.1
isoTOP-ABPP ratio Q9NTX5_C133 ([3]; 200 μM, insitu, 231): 1.5
isoTOP-ABPP ratio Q9Y3D2_C105 ([6]; 200 μM, insitu, 231): 1.5

SMILES: COc1ccccc1OCCNC(=O)CCl [compound 28]
isoTOP-ABPP ratio, Q96RU2_C171 ([5]; 200 μM, insitu, 231): 1.1

SMILES: CC1CCc2ccccc2N1C(=O)CCl (centres unmarked) [compound 45]
isoTOP-ABPP ratio Q6ICB0_C108 ([1]; 200 μM, insitu, 231): 3.1
isoTOP-ABPP ratio Q96FX7_C209 ([2]; 200 μM, insitu, 231): 20.0
isoTOP-ABPP ratio Q9NTX5_C133 ([3]; 200 μM, insitu, 231): 4.2
isoTOP-ABPP ratio Q9Y3D2_C105 ([6]; 200 μM, insitu, 231): 20.0

SMILES: O=C(CCl)Nc1cccc2ncccc12 [compound 51]
isoTOP-ABPP ratio Q6ICB0_C108 ([1]; 200 μM, insitu, 231): 1.1

Now from value to compound:

isoTOP-ABPP reactivity Q6ICB0_C108 DESII ([1]; 200 μM, insitu, 231): 20.0
isoTOP-ABPP reactivity Q96FX7_C209 TRMT61A ([2]; 200 μM, insitu, 231): 20.0
isoTOP-ABPP reactivity Q9NTX5_C133 ECHDC1 ([3]; 200 μM, insitu, 231): 1.5
SMILES: COc1ccc2c(c1)CCCN2C(=O)CCl [compound 2]

isoTOP-ABPP reactivity Q96FX7_C209 TRMT61A ([2]; 100 μM in situ 231): 2.4
isoTOP-ABPP reactivity Q96RS6_C376 NUDCD1 ([4]; 100 μM in situ 231): 1.6
isoTOP-ABPP reactivity Q96RU2_C171 USP28 ([5]; 100 μM in situ 231): 20.0
isoTOP-ABPP reactivity Q9NTX5_C133 ECHDC1 ([3]; 100 μM in situ 231): 1.7
isoTOP-ABPP reactivity Q9Y3D2_C105 MSRB2 ([6]; 100 μM in situ 231): 20.0
SMILES: COc1ccc(C2CC(c3cccs3)=NN2C(=O)CCl)cc1 (centres unmarked) [compound 4]

isoTOP-ABPP reactivity Q6ICB0_C108 DESII ([1]; 200 μM, insitu, 231): 20.0
isoTOP-ABPP reactivity Q96RU2_C171 USP28 ([5]; 200 μM, insitu, 231): 1.2
isoTOP-ABPP reactivity Q9NTX5_C133 ECHDC1 ([3]; 200 μM, insitu, 231): 2.0
isoTOP-ABPP reactivity Q9Y3D2_C105 MSRB2 ([6]; 200 μM, insitu, 231): 20.0
SMILES: COc1cc2c(cc1OC)CN(C(=O)CCl)CC2 [compound 8]

isoTOP-ABPP reactivity Q96RS6_C376 NUDCD1 ([4]; 200 μM, insitu, 231): 2.2
SMILES: O=C(CCl)N1CCC(Cc2ccccc2)CC1 [compound 9]

isoTOP-ABPP ratio, cysteine O14733_C131 [7]; 231: 1.8
isoTOP-ABPP ratio Q96RS6_C376 ([4]; 200 μM, insitu, 231): 5.7
isoTOP-ABPP ratio Q9NTX5_C133 ([3]; 200 μM, insitu, 231): 1.6
isoTOP-ABPP ratio, cysteine Q9Y3D2_C105 ([6]; 200 μM, insitu, 231): 20.0
SMILES: O=C(CCl)N1CCN(S(=O)(=O)c2ccccc2F)CC1 [compound 10]

isoTOP-ABPP ratio Q6ICB0_C108 ([1]; 100 μM in situ 231): 0.7
isoTOP-ABPP ratio Q96RS6_C376 ([4]; 100 μM in situ 231): 0.8
isoTOP-ABPP ratio, cysteine Q96RU2_C171 ([5]; 100 μM in situ 231): 2.2
isoTOP-ABPP ratio Q9NTX5_C133 ([3]; 100 μM in situ 231): 1.0
isoTOP-ABPP ratio, cysteine Q9Y3D2_C105 ([6]; 100 μM in situ 231): 1.3
SMILES: Cn1cc(S(=O)(=O)N2CCOCC2)cc1C(=O)NC(=O)CCl [compound 11]

isoTOP-ABPP ratio O14733_C131 ([7]; ramos): 1.0
isoTOP-ABPP ratio Q6ICB0_C108 ([1]; 200 μM, insitu, ramos): 1.0
isoTOP-ABPP ratio Q96RS6_C376 ([4]; 200 μM, insitu, ramos): 1.3
SMILES: O=C(CCl)N1CCN(CC(=O)N2CCOCC2)CC1 [compound 29]

isoTOP-ABPP ratio Q6ICB0_C108 ([1]; 200 μM, insitu, 231): 1.2
isoTOP-ABPP ratio Q6ICB0_C108 ([1]; 200 μM, insitu, ramos): 1.3
isoTOP-ABPP ratio Q96RS6_C376 ([4]; 200 μM, insitu, 231): 0.8
SMILES: C=CC(=O)N(Cc1cccnc1)c1cc(C(F)(F)F)cc(C(F)(F)F)c1 [compound 31]

isoTOP-ABPP ratio O14733_C131 [7]; 231: 20.0
isoTOP-ABPP ratio Q6ICB0_C108 ([1]; 200 μM, insitu, 231): 1.1
isoTOP-ABPP ratio Q96FX7_C209 ([2]; 200 μM, insitu, 231): 1.0
isoTOP-ABPP ratio Q96RS6_C376 ([4]; 200 μM, insitu, 231): 1.3
isoTOP-ABPP ratio, Q96RU2_C171 ([5]; 200 μM, insitu, 231): 0.8
isoTOP-ABPP ratio Q9Y3D2_C105 ([6]; 200 μM, insitu, 231): 1.6
SMILES: C=CC(=O)Nc1cc(F)c(N2CCN(C(=O)OC(C)(C)C)CC2)c(F)c1 [compound 38]

isoTOP-ABPP ratio O14733_C131 [7]; 231: 0.8
isoTOP-ABPP ratio Q96RS6_C376 ([4]; 200 μM, insitu, 231): 0.7
isoTOP-ABPP ratio Q9Y3D2_C105 ([6]; 200 μM, insitu, 231): 1.2
SMILES: Cc1ccc(C=C(C#N)C(=O)NCCN2CCOCC2)cc1 [compound 41]
